Measurements from patent publication US20180263996A1, “ARYL SULTAM DERIVATIVES AS RORc MODULATORS” (Genentech, Inc., priority 2015, published 2018).
pIC50: −log10 of the molar value.

molecular target: T1, RORc (Homo sapiens, UniProt P51449); test: In Vitro RORc Ligand Binding Assay; details: IC50 values for RORc
T1 construct: host or cells: E. coli
T1 sequence (P51449 269-508 limits assumed): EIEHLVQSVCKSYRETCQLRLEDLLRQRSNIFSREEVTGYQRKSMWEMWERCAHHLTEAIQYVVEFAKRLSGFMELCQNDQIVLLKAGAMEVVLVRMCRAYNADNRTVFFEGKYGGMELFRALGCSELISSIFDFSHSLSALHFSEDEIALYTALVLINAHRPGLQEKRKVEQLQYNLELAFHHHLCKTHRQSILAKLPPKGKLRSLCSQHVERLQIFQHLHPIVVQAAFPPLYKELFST
Protocol: This assay was used to determine a compound's potency in inhibiting activity of RORc by determining, Kiapp, IC50, or percent inhibition values.
On day of the assay, 100 uL of 0.05% CHAPS (in deionized H2O) was added to all wells of the GFB Unifilter plate and allowed soak for 1 h. A wash buffer of 50 mM HEPES (pH 7.4), 150 mM NaCl, and 5 mM MgCl2 was prepared to wash the filter plate. To prepare an assay buffer, BSA was added to the wash buffer to reach 0.01% and DTT was added to reach 1 mM.
The 20× compound stocks were diluted in DMSO with Assay Buffer 4-fold to reach 5× the final test concentration in 25% DMSO (10 uL compound+30 uL Assay Buffer). Solutions were mixed by aspiration several times with a pipette set on 50 uL volume.
For two point screening, 10 mM stock compound solutions were diluted in DMSO to obtain 200 uM (20× the high test concentration) and then diluted 10-fold further to reach 20 uM (20× the low test concentration). The 20× stocks were diluted 4-fold with Assay Buffer (10 uL compound+30 uL Assay Buffer) to reach 5× the test concentrations (50 uM and 5 uM) and 10 uL were added to two assay plates for the duplicate wells. With each concentration tested on 2 plates, each set of 80 compounds used 4 assay plates (1 uM and 10 uM, with n=2).
For 25-hydroxycholesterol in 25% DMSO/75% Assay Buffer; 10 uL per well was used for NSB samples. Wells for Total Binding and No Receptor sample determination contained 10 uL of 25% DMSO/75% Assay Buffer per well.
Add 20 uL to all wells to reach 6 nM final concentration in the assay.
Stock receptor solution was diluted in assay buffer to obtain 1.5 ug/mL in Assay Buffer. 20 uL was added to all wells. For No Receptor samples, 20 uL Assay Buffer was substituted for receptor solution.
Assay plates were 96-well polypropylene V-bottom plates. […] 10 uL of 25% DMSO/75% Assay Buffer was added to Total Binding or No Receptor wells. 10 uL of 5 uM 25-hydroxycholesterol in 25% DMSO/75% Assay Buffer was added to NSB wells. […] 20 uL of 1.5 ug/mL RORc receptor was added to wells (or 40 uL Assay Buffer to No R wells). Following addition to the wells, the plates were incubated 3 h at 25° C.
Using a Packard Filtermate Harvester, the filter plate were washed 4 times following transfer of the incubated samples. Plates were dry-filtered completely (2 h at 50° C. or overnight at room temperature). 50 uL Microscint 0 was added to all wells and read on Topcount protocol Inverted.
Final concentrations were as follows: 50 mM HEPES buffer (pH 7.4); 150 mM NaCl; 1 mM DTT; 5 mM MgCl2; 0.01% BSA; 5% DMSO; 0.6 ug/mL RORc receptor; 6 nM 25-[^3H]hydroxycholesterol. For NSB wells, 1 uM 25-hydroxycholesterol was also present.

pIC50 | Structure (SMILES)
8.64 | C[C@H]1CC[C@H](c2ccccc2)S(=O)(=O)N1Cc1cc(F)c(C2(OCC(N)=O)CC3(COC3)C2)cc1F [Compound 12, 2-[[6-[2,5-difluoro-4-[[(3S,6R)-3-methyl-1,1-dioxo-6-phenyl-thiazinan-2-yl]methyl]phenyl]-2-oxaspiro[3.3]heptan-6-yl]oxy]acetamide]
8.68 | CNC(=O)COC1(c2cc(F)c(CN3[C@@H](C)CC[C@H](c4ccccc4)S3(=O)=O)cc2F)CC2(COC2)C1 [Compound 13, 2-[[6-[2,5-difluoro-4-[[(3S,6R)-3-methyl-1,1-dioxo-6-phenyl-thiazinan-2-yl]methyl]phenyl]-2-oxaspiro[3.3]heptan-6-yl]oxy]-N-methyl-acetamide]
8.66 | C=CCOC1(c2cc(F)c(CN3[C@@H](C)CC[C@H](c4ccccc4)S3(=O)=O)cc2F)CC2(COC2)C1 [Compound 14, (3S,6R)-2-[[4-(6-allyloxy-2-oxaspiro[3.3]heptan-6-yl)-2,5-difluoro-phenyl]methyl]-3-methyl-6-phenyl-thiazinane 1,1-dioxide]
8.19 | C[C@H]1CC[C@H](c2ccccc2)S(=O)(=O)N1Cc1cc(F)c(C2=CC(=O)C2)cc1F [Compound 15, 3-[2,5-difluoro-4-[[(3S,6R)-3-methyl-1,1-dioxo-6-phenyl-thiazinan-2-yl]methyl]phenyl]cyclobut-2-en-1-one]
7.25 | C[C@H]1CC[C@H](c2ccccc2)S(=O)(=O)N1Cc1cc(F)c([C@H](CCC#N)C(N)=O)cc1F [Compound 16, (2S)-4-cyano-2-[2,5-difluoro-4-[[(3S,6R)-3-methyl-1,1-dioxo-6-phenyl-thiazinan-2-yl]methyl]phenyl]butanamide]
7.08 | C[C@H]1CC[C@H](c2ccccc2)S(=O)(=O)N1Cc1cc(F)c([C@@H](CCC#N)C(N)=O)cc1F [Compound 17, (2R)-4-cyano-2-[2,5-difluoro-4-[[(3S,6R)-3-methyl-1,1-dioxo-6-phenyl-thiazinan-2-yl]methyl]phenyl]butanamide]
7.52 | C[C@H]1CC[C@H](c2ccccc2)S(=O)(=O)N1Cc1cc(F)c([C@@H](OCC2CC2)C(N)=O)cc1F [Compound 18, (2R)-2-(cyclopropylmethoxy)-2-[2,5-difluoro-4-[[(3S,6R)-3-methyl-1,1-dioxo-6-phenyl-thiazinan-2-yl]methyl]phenyl]acetamide]
7.29 | C[C@H]1CC[C@H](c2ccccc2)S(=O)(=O)N1Cc1cc(F)c([C@H](OCC2CC2)C(N)=O)cc1F [Compound 19, (2S)-2-(cyclopropylmethoxy)-2-[2,5-difluoro-4-[[(3S,6R)-3-methyl-1,1-dioxo-6-phenyl-thiazinan-2-yl]methyl]phenyl]acetamide]
8.38 | C[C@H]1CC[C@H](c2ccccc2)S(=O)(=O)N1Cc1cc(F)c(C(C)(C)NCC(N)=O)cc1F [Compound 20, 2-[[1-[2,5-difluoro-4-[[(3S,6R)-3-methyl-1,1-dioxo-6-phenyl-thiazinan-2-yl]methyl]phenyl]-1-methyl-ethyl]amino]acetamide]
8.82 | C[C@H]1CC[C@H](c2ccccc2)S(=O)(=O)N1Cc1cc(F)c(C2(NCC(N)=O)CC(F)(F)C2)cc1F [Compound 21, 2-[[1-[2,5-difluoro-4-[[(3S,6R)-3-methyl-1,1-dioxo-6-phenyl-thiazinan-2-yl]methyl]phenyl]-3,3-difluoro-cyclobutyl]amino]acetamide]
6.58 | C[C@@H](NC1=CC(=O)CCC1)c1cc(F)c(CN2[C@@H](C)CC[C@H](c3ccccc3)S2(=O)=O)cc1F [Compound 22, 3-[[(1R)-1-[2,5-difluoro-4-[[(3S,6R)-3-methyl-1,1-dioxo-6-phenyl-thiazinan-2-yl]methyl]phenyl]ethyl]amino] cylohex-2-en-1-one]
6.88 | C[C@H](NC1=CC(=O)CCC1)c1cc(F)c(CN2[C@@H](C)CC[C@H](c3ccccc3)S2(=O)=O)cc1F [Compound 26, 3-[[(1S)-1-[2,5-difluoro-4-[[(3S,6R)-3-methyl-1,1-dioxo-6-phenyl-thiazinan-2-yl]methyl]phenyl]ethyl]amino] cyclohex-2-en-1-one]
7.66 | C[C@H]1CC[C@H](c2ccccc2)S(=O)(=O)N1Cc1cc(F)c(C23CC(C)(C2)OC3=O)cc1F [Compound 27, 4-[2,5-difluoro-4-[[(3S,6R)-3-methyl-1,1-dioxo-6-phenyl-thiazinan-2-yl]methyl]phenyl]-1-methyl-2-oxabicyclo[2.1.1]hexan-3-one]
7.70 | CNC(=C[N+](=O)[O-])NC(C)c1cc(F)c(CN2C(C)CCC(c3ccccc3)S2(=O)=O)cc1F [Compound 28, N1′-[1-[2,5-difluoro-4-[[(3S,6R)-3-methyl-1,1-dioxo-6-phenyl-thiazinan-2-yl]methyl]phenyl]ethyl]-N1-methyl-2-nitro-ethene-1,1-diamine]
7.25 | CC(NCC(N)=O)c1cc(F)c(CN2[C@@H](C)CC[C@H](c3ccccc3)S2(=O)=O)cc1F (stereo partly drawn) [Compound 29, 2-[1-[2,5-difluoro-4-[[(3S,6R)-3-methyl-1,1-dioxo-6-phenyl-thiazinan-2-yl]methyl]phenyl]ethylamino] acetamide]
6.89 | C[C@H]1CC[C@H](c2ccccc2)S(=O)(=O)N1Cc1ccc(C2(C(=O)NC3CC3)CCOCC2)cc1F [Compound 30, N-cyclopropyl-4-[3-fluoro-4-[[(3S,6R)-3-methyl-1,1-dioxo-6-phenyl-thiazinan-2-yl]methyl]phenyl]tetrahydropyran-4-carboxamide]
7.08 | C[C@H]1CC[C@H](c2ccccc2)S(=O)(=O)N1Cc1ccc(C2(C(=O)NCC3CC3)CCOCC2)cc1F [Compound 31, N-(cyclopropylmethyl)-4-[3-fluoro-4-[[(3S,6R)-3-methyl-1,1-dioxo-6-phenyl-thiazinan-2-yl]methyl]phenyl]tetrahydropyran-4-carboxamide]
7.27 | CO[C@H]1C[C@@H](NC(=O)C2(c3ccc(CN4[C@@H](C)CC[C@H](c5ccccc5)S4(=O)=O)c(F)c3)CCOCC2)C1 [Compound 32, 4-[3-fluoro-4-[[(3S,6R)-3-methyl-1,1-dioxo-6-phenyl-thiazinan-2-yl]methyl]phenyl]-N-(3-methoxycyclobutyl)tetrahydropyran-4-carboxamide]
7.87 | C[C@H]1CC[C@H](c2ccccc2)S(=O)(=O)N1Cc1ccc(C2(C(=O)NC3CC(O)C3)CCOCC2)cc1F (stereo partly drawn) [Compound 34, 4-[3-fluoro-4-[[(3S,6R)-3-methyl-1,1-dioxo-6-phenyl-thiazinan-2-yl]methyl]phenyl]-N-(3-hydroxycyclobutyl)tetrahydropyran-4-carboxamide]
7.37 | C[C@H]1CC[C@H](c2ccccc2)S(=O)(=O)N1Cc1ccc(C2(C(=O)NC3(CO)CC3)CCOCC2)cc1F [Compound 35, 4-[3-fluoro-4-[[(3S,6R)-3-methyl-1,1-dioxo-6-phenyl-thiazinan-2-yl]methyl]phenyl]-N-[1-(hydroxymethyl)cyclopropyl] tetrahydropyran-4-carboxamide]
7.32 | C[C@H]1CC[C@H](c2ccccc2)S(=O)(=O)N1Cc1cc(F)c(C2(C(=O)N[C@H]3C[C@H](O)C3)CCOCC2)cc1F [Compound 37, 4-[2,5-difluoro-4-[[(3S,6R)-3-methyl-1,1-dioxo-6-phenyl-thiazinan-2-yl]methyl]phenyl]-N-(3-hydroxycyclobutyl) tetrahydropyran-4-carboxamide]
